Source: patent US12662451B2, “Chemical compounds and uses thereof” (GLAXOSMITHKLINE INTELLECTUAL PROPERTY (NO.4) LIMITED, priority 2023, dated 2026)
Read-outs that look alike come from different tables or passages of the source.

Assays:
[1] = system: SW48 human colorectal cancer cells (MSI-H cancer cells)
[2] = biological target: T1, recombinant full-length WRN protein (1-1432) (Homo sapiens, UniProt Q14191); assay: WRN unwinding activity, fluorogenic 384-well assay (Example A); type: biochemical; details: WRN unwinding activity, Table 2; for IC50: 4 hr, read-out: 4 hr UNW pIC50 (converted)
T1 construct: recombinant full-length WRN protein (1-1432)
Summary of the method: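 Read-out is end-point unwinding of a fluorophore/quencher duplex (ex 525, em 598 nm) after 60 min with 200 μM ATP and 12 nM DNA (2× stocks), EDTA stop. Compound first sat 4 h with 200 pM WRN (2× stock) in pH 8.0 Tris buffer; four-parameter fit gives pIC50.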

[3] = system: SW48 human colorectal cancer cells (MSI-H cancer cells); assay: SW48 cell viability, CellTiter-Glo, 120 hours (Example B); details: for CC50: Homo sapiens
[4] = Cell culture media unbound percentage and stability by rapid equilibrium dialysis (Example C); type: in vitro ADME; details: bovine, cell assay medium (RPMI-1640 with 10% fetal bovine serum), pH 7.4, rapid equilibrium dialysis, 4 hours at 37° C., read-out: Cell Culture Media Binding (% unbound)
Summary of the method: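 Percent unbound in cell assay medium came from the LC-MS/MS receiver:donor peak area ratio, with stability taken as the 240 min over 0 min ratio. Set-up: 1 μM nominal compound in medium dialysed against pH 7.4 PBS (100 mM phosphate, 150 mM NaCl), 4 h, 37° C, shaken, in triplicate.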

[5] = system: SW48 human colorectal cancer cells; assay: Calculated free drug potency in SW48 cell assay, corrected with media free fraction (Example C); type: cell-based; details: Homo sapiens, SW48, SW48 pCC50 corrected with measured free fraction in cell assay media
Summary of the method: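 Free drug potency derives from correcting SW48 assay concentrations with the unbound fraction in medium. That fraction came from RED against pH 7.4 PBS, 1 μM nominal compound, 4 h at 37 °C, quantified by LC-MS/MS peak area ratios at T=240 versus T=0 min.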

[6] = system: SW48 human colorectal cancer cell line xenografts; assay: In vivo efficacy in mouse model bearing SW48 xenografts (Example D); details: SW48 xenograft, female nude mice
Experimental: In Viva Efficacy Study of Test Compounds in Mouse Model Bearing SW48 Human Colorectal Cancer Cell Line Xenografts
Experiments were performed with female Crl:Nu-Foxn1^nu nude mice. Animals were housed under optimized hygienic condition with food and water at libitum and a 12 h:12 h light:dark cycle. Animals were allowed to acclimatize for at least 4 days before being enrolled in the experimental design.
SW48 human colorectal cancer cells (RRID:CVCL1724) were obtained from ATCC. The cells were cultured in RPMI 1640 with 10% Fetal Bovine Serum at 37° C. in atmosphere of 5% CO2 in air. To establish SW48 xenografts, cells were harvested and resuspended in serum free RPM11640 and Matrigel before inoculation and 5×10^6 SW48 tumor cells were injected subcutaneously in 100 μL volume using 27G1/2 needle. Cells were inoculated in the right hind flank of the animals.
Post cell inoculation, tumor growth was monitored daily, and animals were randomized into treatment groups (n=10/group) once the tumor volume reached an appropriate size (80-150 mm^3). Throughout the treatment period, both tumor volume and body weight were measured approximately twice a week. The tumor size, in mm^3, was computed using the formula: 0.5×L×W^2, where W=width and L=length of the tumor. To prepare a test compound for oral administration, between 30-120 mg of the test compound was dissolved in a vehicle solution consisting of 0.5% Methycellulose (cp 400) and 0.5% Tween 80. The compound was freshly prepared one hour prior to daily administration. If turbidity was observed, the solution was vortexed at over 2000 rpm for 10 minutes and mixed with a 1 mL syringe. The resulting solution formulation was utilized for in vivo studies.
Animals received either a vehicle or test compounds at dosage of 30 or 100 mg/kg daily through oral gavage (10 ml/kg). Body weight was measured twice a week using the Ohaus electronic scale (STX421) and the data was automatically added to the study log. Moreover, daily clinical observations were performed to closely monitor the animals. Tumor growth inhibition was computed using the following formula:
[formula] where T=current group value; T0=Current group initial value; C=Control group Value; C0=control group initial value.
Data of tumor volume were exported and analyzed in GraphPad Prism (9.5). The analysis included a two-way ANOVA test, comparing the vehicle control vs. treatments at different time points, followed by a Tukey HSD post hoc test.
The calculation of tumor regression was conducted as per the following formula:
[formula] where Day 0=treatment start day; Δ tumor volume=mean tumor volume on the evaluation day—mean tumor volume Day 0.

[7] = SW48, read-out: SW48 pCC50, measured potency from Example B, as repeated in Table 3 (converted)
[8] = SW48, 120 h, read-out: SW48 pCC50, SW48 cell viability, 120 hours incubation (converted), Table 2

T1 sequence (Q14191 whole entry): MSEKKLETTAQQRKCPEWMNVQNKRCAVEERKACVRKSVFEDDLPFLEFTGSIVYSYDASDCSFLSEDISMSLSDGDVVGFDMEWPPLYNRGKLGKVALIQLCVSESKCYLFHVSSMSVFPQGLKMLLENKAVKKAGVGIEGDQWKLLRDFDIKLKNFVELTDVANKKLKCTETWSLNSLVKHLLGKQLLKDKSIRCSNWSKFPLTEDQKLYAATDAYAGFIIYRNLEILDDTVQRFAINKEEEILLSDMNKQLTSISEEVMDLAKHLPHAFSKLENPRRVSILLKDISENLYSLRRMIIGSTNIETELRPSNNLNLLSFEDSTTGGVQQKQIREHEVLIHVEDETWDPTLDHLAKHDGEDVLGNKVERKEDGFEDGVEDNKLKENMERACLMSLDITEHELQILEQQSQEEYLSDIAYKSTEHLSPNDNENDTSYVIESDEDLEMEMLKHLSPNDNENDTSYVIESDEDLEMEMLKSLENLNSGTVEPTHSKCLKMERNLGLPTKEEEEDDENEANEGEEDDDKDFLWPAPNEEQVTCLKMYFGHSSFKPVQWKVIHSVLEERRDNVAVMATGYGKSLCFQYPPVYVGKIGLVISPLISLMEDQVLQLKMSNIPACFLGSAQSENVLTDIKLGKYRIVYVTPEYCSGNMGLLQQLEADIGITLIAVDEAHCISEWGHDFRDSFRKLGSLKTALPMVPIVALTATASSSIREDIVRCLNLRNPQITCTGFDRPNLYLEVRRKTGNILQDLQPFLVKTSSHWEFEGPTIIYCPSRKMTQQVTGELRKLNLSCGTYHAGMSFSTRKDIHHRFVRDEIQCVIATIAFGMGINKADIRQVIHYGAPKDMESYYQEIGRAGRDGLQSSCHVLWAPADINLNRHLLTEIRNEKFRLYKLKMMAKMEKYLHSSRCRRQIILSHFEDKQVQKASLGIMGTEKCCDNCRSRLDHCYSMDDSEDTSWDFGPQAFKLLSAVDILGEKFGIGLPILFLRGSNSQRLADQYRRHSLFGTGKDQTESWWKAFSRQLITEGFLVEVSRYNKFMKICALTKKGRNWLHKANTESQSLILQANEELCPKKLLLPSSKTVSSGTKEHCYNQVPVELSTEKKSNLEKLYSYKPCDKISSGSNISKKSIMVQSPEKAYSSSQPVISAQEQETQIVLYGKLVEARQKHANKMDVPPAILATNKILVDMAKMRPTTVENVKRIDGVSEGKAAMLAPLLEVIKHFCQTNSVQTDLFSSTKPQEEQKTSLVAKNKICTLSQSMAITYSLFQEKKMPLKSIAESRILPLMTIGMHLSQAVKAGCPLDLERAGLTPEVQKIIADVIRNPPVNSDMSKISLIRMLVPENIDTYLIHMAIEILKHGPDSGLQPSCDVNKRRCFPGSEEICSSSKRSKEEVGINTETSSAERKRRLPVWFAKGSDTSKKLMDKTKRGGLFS

4 hr UNW pIC50 [2] | fraction unbound at 4 h, 1 µM [4] | IC50 [2] | SMILES | SW48 pCC50 [1] | CC50 [3, 7] | SW48 pCC50 ([3]; SW48 cell viability, 120 hours incubation, Table 2) | CC50 [5] | mean tumor regression ([6]; 100 mpk daily oral, 55th day) | CC50 [3, 8] | mean tumor regression ([6]; 30 mpk orally once a day, 21st day) | tumor growth inhibition compared to the vehicle control ([6]; 30 mpk daily oral, 21st day) | mean tumor regression ([6]; 30 mpk daily oral, 23rd day)
9.2 | – | – | Cc1nc2cc(S(=O)(=O)Nc3ccc([C@H]4CCC[C@@H](C(=O)Nc5ccc(C(F)(F)F)cc5F)[C@@H]4C(=O)O)cc3)ccc2[nH]1 (relative stereo) [Example 259, rel-(1R,2R,6S)-2-((2-fluoro-4-(trifluoromethyl)phenyl)carbamoyl)-6-(4-((2-methyl-1H-benzo[d]imidazole)-5-sulfonamido)phenyl)cyclohexane-1-carboxylic acid] | 5.4 | – | – | – | – | – | – | – | –
– | 0.065 | 2.51 nM | Cc1nc2cc(S(=O)(=O)N(C)c3ccc([C@H]4CCC[C@@H](C(=O)Nc5ccc(C(F)(F)F)cc5F)[C@@H]4C(=O)O)cc3)ccc2n1C (single isomer, unassigned) [Example 83] | – | 251 nM | 6.6 | 12.9 nM | −24.01% | – | – | – | –
– | 0.067 | 3.16 nM | CCO[C@@H]1C[C@H](c2ccc(N(C)S(=O)(=O)c3ccc4c(c3)nc(C)n4C)cc2)[C@@H](C(=O)O)[C@H](C(=O)Nc2ccc(C(F)(F)F)cc2F)C1 (single isomer, unassigned) [Example 138] | – | 251 nM | – | 17 nM | – | 251 nM | −74.26% | – | –
– | 0.027 | 6.31 nM | COC[C@@H]1C[C@H](c2ccc(N(C)S(=O)(=O)c3ccc4c(c3)nc(C)n4C)cc2)[C@@H](C(=O)O)[C@H](C(=O)Nc2ccc(C(F)(F)F)cc2F)C1 (single isomer, unassigned) [Example 250] | – | 316 nM | – | 8.51 nM | – | 316 nM | – | 72.95% | –
5.7 | – | – | Cc1nc2cc(S(=O)(=O)N(C)c3ccc([C@H]4CCC[C@@H](COc5ccc(C(F)(F)F)cc5)[C@@H]4C(=O)O)cc3)cc([C@@H]3CCCNC3)c2n1C.Cl (stereo in doubt) [Example 210, rel-(1R,2R,6S)-2-((4-(trifluoromethyl)phenoxy)methyl)-6-(4-((N,1,2-trimethyl-7-((S)-piperidin-3-yl)-1H-benzo[d]imidazole)-5-sulfonamido)phenyl)cyclohexane-1-carboxylic acid, hydrochloride] | 4.9 | – | – | – | – | – | – | – | –
– | 0.103 | 5.01 nM | Cc1nc2cc(S(=O)(=O)N(C)c3ccc([C@H]4C[C@@H](N5CCC(F)(F)C5)C[C@@H](C(=O)Nc5ccc(C(F)(F)F)cc5F)[C@@H]4C(=O)O)cc3)ccc2n1C [Example 306, (1R,2R,4R,6S)-4-(3,3-difluoropyrrolidin-1-yl)-2-((2-fluoro-4-(trifluoromethyl)phenyl)carbamoyl)-6-(4-((N,1,2-trimethyl-1H-benzo[d]imidazole)-5-sulfonamido)phenyl)cyclohexane-1-carboxylic acid] | – | 100 nM | – | 10.2 nM | – | 100 nM | – | – | −73.2%

SMILES | 4 hr UNW pIC50 [2] | fraction unbound at 4 h, 1 µM [4] | IC50 [2] | SW48 pCC50 [1] | CC50 [3, 7] | SW48 pCC50 ([3]; SW48 cell viability, 120 hours incubation, Table 2) | CC50 [5] | mean tumor regression ([6]; 100 mpk daily oral, 55th day) | CC50 [3, 8] | mean tumor regression ([6]; 30 mpk orally once a day, 21st day) | tumor growth inhibition compared to the vehicle control ([6]; 30 mpk daily oral, 21st day) | mean tumor regression ([6]; 30 mpk daily oral, 23rd day)
CN(c1ccc([C@H]2CCC[C@@H](C(=O)Nc3ccc(C(F)(F)F)cc3F)[C@@H]2C(=O)O)cc1)S(=O)(=O)c1ccc(-n2cccn2)cc1 [Example 98, (1R,2R,6S)-2-((2-fluoro-4-(trifluoromethyl)phenyl)carbamoyl)-6-(4-((N-methyl-4-(1H-pyrazol-1-yl)phenyl)sulfonamido)phenyl)cyclohexane-1-carboxylic acid] | 8.6 | – | – | 5.5 | – | – | – | – | – | – | – | –
